In patent US20150148369A1, “CHEMICAL SUPPRESSORS OF NEUROTOXICITY IN SYNUCLEINOPATHIC DISEASES” (priority 2012, published 2015):
Several values for one entry are separate records, joined by “and”; a condition that tells them apart may be missing. Identical values can stand only once. Entries after “also recorded” stand apart in the source; their conditions may differ. Like-named read-outs stand apart in the source and are kept apart here.

Experiments:
[1] = system: gap junction; settings: cited from earlier work
[2] = system: polyglutamine-expanded Huntingtin protein; settings: cited from earlier work; for polyglutamine protein aggregation: Huntington's disease (HD) model
[3] = in vivo, cited from earlier work
[4] = system: aSYN expressing larvae; assay: Larval survival assay in liquid culture; type: in vivo, Drosophila; settings: for survival: after 4 days in liquid culture, DMSO 14%, untreated 13%
Procedure: (§1) Embryos are collected from transgenic strains and dispensed in 96-well plates containing liquid media culture (200 uL/well). Stock compounds (15, 15×10^−2, 15×10^−5 mM) prepared in DMSO, are diluted 1/10 with media, and then 1 uL of this working reagent is dispensed in culture wells. Percentage survival of mutant and negative control larvae are recorded on day 4 following compound administration. Data are plotted graphically.
as §1, with “Embryos were” for “Embryos are”, “DMSO, were” for “DMSO, are”, “reagent was” for “reagent is”, “Data were” for “Data are”, “plotted graphically with Prism software.” for “plotted graphically.”

[5] = system: primary neurons expressing human mutant aSYN A30P; assay: Primary neuronal culture, neurite morphology (Cellomics ArrayScan); type: cell-based, Drosophila; settings: for neurite length and branching in images vs DMSO controls: 60 nM, FIG. 1B, 1C
Procedure: Primary cell cultures are prepared from mid-gastrula stage embryos as described previously (Sepp et al., 2008). Briefly, embryos are collected on agar media plates and dechorionated in 50% bleach for 4 min., followed by rinsing with sterile distilled water. Embryos are homogenized in Shields and Sang M3 media (Sigma) in a Dounce homogenizer, and debris are pelleted by centrifugation at 40 g for 10 min and then 5 min. Neuroblasts are pelleted by centrifugation at 380G for 10 min. Cells are resuspended at 1×10^6 cells/mL in Shields and Sang M3 media supplemented with 10 U/mL penicillin, 10 ug/mL streptomycin, and 200 ng/mL insulin, and plated on 384-well plates (Corning) at 50 uL/well. Cells are incubated at 21° C. Compound is applied 24 hrs after cells are plated. Stock compounds (15 mM) and log dilutions (10^−1, 10^−2, 10^−3, 10^−4, and 10^−5) are prepared in DMSO, then each stock is further diluted 1/10 with media, and 1 uL of this working reagent is applied to culture wells. Cultures are matured for 7 days. Cultures are fixed and stained as described previously (Halter et al., 1995), using pan-neuronal marker anti-elav (1:10, Developmental Studies Hybridoma Bank), and anti-human aSYN (1:1000, Abeam), and dopaminergic neuron marker anti-tyrosine hydroxylase (1:1000, Millipore). Cultures are imaged on a Cellomics robotic fluorescence microscope, and morphologies are quantified with Cellomics ArrayScan algorithms and statistically processed with Prism software.
Primary cell cultures were prepared from mid-gastrula stage embryos as described previously (Sepp et al., 2008). Briefly, embryos are collected on agar media plates and dechorionated in 50% bleach for 4 min., followed by rinsing with sterile distilled water. Embryos were homogenized in Shields and Sang M3 media (Sigma) in a Dounce homogenizer, and debris pelleted by centrifugation at 40 g for 10 min and then 5 min. Neuroblasts were pelleted by centrifugation at 380G for 10 min. Cells were resuspended at 1×10^6 cells/mL in Shields and Sang M3 media supplemented with 10 U/mL penicillin, 10 ug/mL streptomycin, and 200 ng/mL insulin, and plated on 384-well plates (Corning) at 50 uL/well. Cells were incubated at 21° C. Compound was applied 24 hrs after cells were plated. Stock compounds (15 mM) and log dilutions (10^−1, 10^−2, 10^−3, 10^−4, and 10^−5) were prepared in DMSO, then each stock was further diluted 1/10 with media, and 1 uL of this working reagent was applied to culture wells. Cultures were matured for 7 days. Cultures were fixed and stained as described previously (Halter et al., 1995), using pan-neuronal marker anti-GFP (1:1000, Life Technologies), and anti-human aSYN (1:1000, Abcam). Cultures were imaged on a Cellomics robotic fluorescence microscope, and morphologies are quantified with Cellomics ArrayScan algorithms and statistically processed with Prism software.

[6] = target: HSD1 (Mus musculus, UniProt P50172); settings: i.p. 20 mg/kg, every other day for 2 months; cited from earlier work
[7] = system: human mutant aSYN (AAV1/2 A53T α-Synuclein); assay: Quantitative immunoblot of aSYN in AAV-aSYN rat model of Parkinson's disease; type: in vivo; settings: 37.4 ug/h into third ventricle; for aSYN protein levels in postmortem rat brain immunoblots: TPT vs vehicle
Source text: An AAV 1/2-aSYN A53T vector delivery-based over-expression of aSYN in the rat substantia nigra was chosen to model PD synucleinopathy, since it replicates progressive nigrostriatal degeneration and basal ganglia-based motor features of PD better than existing stable transgenic models. Furthermore, time of symptom onset is far more predictable, thus reducing experimental noise. Viral vectors will be delivered as using stereotactic injection. Briefly, 20 Sprague Dawley rats (280 g, Charles River) were injected with AAV 1/2-aSYN A53T to the experimental hemisphere (right) and AAV1/2-GFP to the control hemisphere (left) using standard stereotaxic procedures and isoflurane/oxygen anesthesia. Vector (2 μL) was delivered by microinjector (Stoelting, Kiel, Wis.) at 0.2 μL/min with coordinates from Bregma: AP, −5.2 mm; ML, −2.0 mm; DV, −7.5 mm. Viral stock concentrations for both AAV1/2 GFP and AAV1/2-aSYN A53T were 1.7×10^12 gp/mL. Animals were housed in pairs at 20° C. with a 12 hr light/dark cycle with food and water ad libitum. Animals recovered were maintained with regular care for 3 weeks as viral gene expression of aSYN built to emerging pathological levels as characterized previously.
On Day 1 of Week 3, rats were fitted with osmotic mini-pumps to administer TPT to the third ventricle. Intracerebral administration was chosen to maximize the amount of drug given to the brain and minimize side effects in peripheral tissues. Using standard stereotaxic procedures, a 22-gauge guide cannula (Plastics One, Roanoake, Va.) was placed into the third ventricle (AP, −1.3 mm, ML, +0.0 mm; DV −4.6 mm with respect to bregma) of isoflurane/oxygen anesthetized rats, and anchored with dental acrylic. […]
Standard Western blot techniques are used on dissected postmortem tissues to determine if aSYN levels decrease in response to TPT treatment. […] Blots are imaged on an Odyssey Quantitative Fluorescence Imaging System. Two-tailed student's t-test is used Western blot quantifications.

[8] = Pharmacokinetic analysis: mass-spec of TPT in postmortem rat brain; type: in vivo; settings: osmotic pump into third ventricle, 37.4 ug/h
Source text: On Day 1 of Week 3, rats were fitted with osmotic mini-pumps to administer TPT to the third ventricle. Intracerebral administration was chosen to maximize the amount of drug given to the brain and minimize side effects in peripheral tissues. Using standard stereotaxic procedures, a 22-gauge guide cannula (Plastics One, Roanoake, Va.) was placed into the third ventricle (AP, −1.3 mm, ML, +0.0 mm; DV −4.6 mm with respect to bregma) of isoflurane/oxygen anesthetized rats, and anchored with dental acrylic. Rats were bilaterally infused with TPT or vehicle using a mini-osmotic pulp (Alzet model 2ML2 pump, flow rate 5.0 uL/hr, Durect Corp. Cupertino) to the third ventricle, which was delivered for 2 weeks. The pumps were filled with 16.34 mM topotecan (TPT) (CPT06, Molcan Corporation) in 50 mM tartaric acid with 0.9% saline (delivered at 37.4 μg/h), or vehicle control alone. Upon cessation of drug on Day 7 of Week 4 or at some other time point, rats were sacrificed by an overdose of pentobarbital (1.0 mL of 240 mg/mL, i.p.) and exsanguinated by transcardial saline perfusion followed by 4% paraformaldehyde.
Postmortem brain samples were subjected to standard quadrupole mass […] analysis to determine brain penetration of TPT into tissue samples.

HSD1, sequence (P50172 whole entry): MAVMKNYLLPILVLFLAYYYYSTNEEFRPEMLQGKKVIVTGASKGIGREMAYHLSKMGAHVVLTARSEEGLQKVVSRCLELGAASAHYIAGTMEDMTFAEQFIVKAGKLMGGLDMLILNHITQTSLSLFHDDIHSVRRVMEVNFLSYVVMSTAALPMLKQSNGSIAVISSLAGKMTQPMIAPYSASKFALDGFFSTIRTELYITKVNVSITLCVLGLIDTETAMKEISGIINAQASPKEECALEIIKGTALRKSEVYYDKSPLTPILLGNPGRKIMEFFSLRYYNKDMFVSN

CC1(C)[C@@H](O)CC[C@]2(C)[C@H]3C(=O)C=C4[C@@H]5C[C@@](C)(C(=O)O)CC[C@]5(C)CC[C@@]4(C)[C@]3(C)CC[C@@H]12 [18β-glycyrrhetinic acid]
gap junction blocking activity [1]: have gap junction blocking activity
polyglutamine protein aggregation [2]: protect against polyglutamine protein aggregation
crossing of the blood-brain-barrier [3]: do not cross the blood-brain-barrier at high enough concentrations

CC[C@@]1(O)C(=O)OCc2c1cc1n(c2=O)Cc2cc3cc(O)ccc3nc2-1 [camptothecin-OH, 10-hydroxy-camptothecin]
survival ([4]; 'hi' dose 15 uM, n=5): 100%
survival compared to DMSO vehicle-treated controls ([4]; high dose 15 uM): improved survival
neurite morphology profiles (image features) vs DMSO negative control ([5]; 30 nM): improved neurite morphology profiles
neurite outgrowth vs DMSO control ([5]; 30 nM, FIG. 1D): improved neurite outgrowth
total neurite length per well ([5]; 30 nM, Mean±SEM, n=4, DMSO vehicle 15240±799.8 (n=18), P<0.05, FIG. 1D): 20170±1430 um

CC1(C)[C@@H](OC(=O)CCC(=O)O)CC[C@]2(C)[C@H]3C(=O)C=C4[C@@H]5C[C@@](C)(C(=O)O)CC[C@]5(C)CC[C@@]4(C)[C@]3(C)CC[C@@H]12 [carbenoxolone, (3β)-3-[(3-carboxy-propanoyl)oxy]-11-oxoolean-12-en-30-oic acid]
gap junction blocking activity [1]: have gap junction blocking activity
inhibition of target enzyme HSD1 [6]: effective at inhibiting the target enzyme HSD1
neurite morphology profiles (image features) vs DMSO negative control ([5]; 30 nM): improved neurite morphology profiles
excessive branching vs DMSO vehicle controls ([5]; 30 nM, FIG. 1E): reduces the excessive branching phenotype; also recorded: reduced excessive branching
total branches per well ([5]; 30 nM, Mean±SEM, n=4, DMSO vehicle 4.416±0.2622 (n=16), P<0.05, FIG. 1E): 3.198±0.1825
neurite length and branching in images vs DMSO controls [5]: longer neurites and reduced neuritic branching
polyglutamine protein aggregation [2]: protect against polyglutamine protein aggregation
lifespan and motor control ([2]; early dosing): extend Drosophila HD model lifespan and improves motor control
rescue of toxicity of polyglutamine-expanded Huntingtin protein ([2]; in vivo, Drosophila): in vivo rescue of toxicity
crossing of the blood-brain-barrier ([3]; concentrations needed for gap junction block): do not cross the blood-brain-barrier at high enough concentrations

C[C@@H](CN1CC(=O)NC(=O)C1)N1CC(=O)NC(=O)C1 [dexrazoxane, Dexrazoxane]
survival ([4]; 'med' dose 0.15 uM, n=9): 75%
survival compared to DMSO vehicle-treated controls ([4]; medium dose 0.15 uM): improved survival

CC[C@@]1(O)C(=O)OCc2c1cc1n(c2=O)Cc2cc3c(CN(C)C)c(O)ccc3nc2-1 [topotecan]
aSYN protein levels in postmortem rat brain immunoblots [7]: reduced aSYN protein levels; also recorded: inverse relationship
aSYN protein levels in postmortem rat brain immunoblots ([7]; listed as TPT): reduced in the TPT treatment with a dose-dependent trend
reduction in aSYN normalized to beta-Actin vs vehicle control ([7]; three rats, average 2725 ng TPT/g tissue): ~2 fold
average TPT brain level of three rats [8]: 2725 ng TPT/g tissue
TPT level in cortex, single rats ([8]; n=3 rats, listed as TPT): 6809 ng TPT/g tissue and 967 ng TPT/g tissue and 399 ng TPT/g tissue
neurite outgrowth vs DMSO control ([5]; 30 nM, FIG. 1D): improved neurite outgrowth
neurite length and branching in images vs DMSO controls [5]: longer neurites and reduced neuritic branching
